The values below come from patent US20090181910A1, “METHOD OF PREVENTION AND ALLEVIATION OF TOXICITY BY MODULATION OF IRF3” (priority 2006, published 2009).

One data set relates to ABCA1. Nature of the data set: RAW 264.7 Q-PCR: ABCA1. In kind it is cell-based, murine. Particulars: overexpression of Hes1 in RAW 264.7 cells; FIG. 10b.
In the next data set the test system is CRBPII. Nature of the data set: RAW 264.7 Q-PCR: CRBPII. The data set is classed as cell-based, murine. Particulars: overexpression of Hes1 in RAW 264.7 cells; FIG. 10b.
The test system of a further data set is Cyp1A2. Nature of the data set: Liver RNA Q-PCR, polyI:C/APAP-treated mice: Cyp1A2. Particulars: APAP 350 mg/kg i.p., 6 h.
The test system of data set [1] is Cyp3A11. Nature of the data set: Liver RNA Q-PCR, polyI:C/APAP-treated mice: Cyp3A11. Particulars: APAP 350 mg/kg i.p., 6 h.
The conditions of data set [2]: in adults; cited from earlier work.
A further data set has as its system Oatp2. More on the design: species or system mice. Particulars: mouse.
For data set [3] the following is noted: mouse, in vivo.
The subject of data set [4] is UGT1A6. More on the design: species or system mice. Particulars: mouse.
For data set [5], the system named is RXRα. More on the design: species or system mice. Particulars: mouse, in vivo.
Data set [6] concerns UGT1A6. The data set is classed as cell-based, human. Particulars: Huh7 cells with RXRα silenced by siRNA; ASA 20 μg/ml 24 hours.
For data set [7] the following is noted: mouse, in vivo. This is another data set of the same source.
Data set [8] has as its system Cyp3A11. Particulars: mouse.
The test system of data set [9] is RXRα. Nature of the data set: BMM anti-RXRα Western blot. In kind it is cell-based, Murine. Particulars: for RXRα protein loss following polyI:C treatment: LG268 10 nM or GW3965 1 μM added to polyI:C 1 μg/ml, 24 hrs, FIG. 8d. (In general: In western blotting, separated proteins are transferred to a membrane and probed.)
The conditions of data set [10]: mouse, in vivo. This is another data set of the same source.
The nature of data set [11]: Serum ALT in APAP hepatotoxicity.
Data set [12] is described as follows: Survival following APAP treatment. In kind it is in vivo, mice. Particulars: PCN 75 mg/kg i.p. 24 h before APAP 175 mg/kg; FIG. 4C. As to the method:
FIG. 4: Percentage survival following APAP treatment with or without polyI:C. (A) Wildtype (n=8) fasted and were treated with 0.1% NaCl or polyI:C (100 μg) intravenous (i.v.) 24 hours prior to treatment with APAP (600 mg/kg) by intraperitoneal (i.p.) injection. (B) Wildtype and IRF3−/− (n=6-8) fasted and were treated with 0.1% NaCl or polyI:C (100 μg) intravenous (i.v.) 24 hours prior to treatment with APAP (600 mg/kg) by intraperitoneal (i.p.) injection. (C) Wildtype mice (n=6-8) fasted and were treated with 0.1% NaCl or polyI:C (100 μg) intravenous (i.v.) and PCN (75 mg/kg) intraperitoneal (i.p.) 24 hours prior to treatment with APAP (175 mg/kg) by intraperitoneal (i.p.) injection.
Age and sex matched 6-9 week old mice were used for all experiments. C57/B16 mice were obtained from Jackson Laboratory. IRF3^−/− mice were obtained from Dr. T. Taniguchi. For APAP hepatotoxicity analysis, mice fasted for […] and then administered Vehicle (0.1% NaCl) or APAP (175-600 mg/kg) by intraperitoneal injection (i.p.). For serum and histological studies, mice were sacrificed at 6-7 hours post injection and serum and liver samples were retrieved. For survival studies, mice were studied for up to 5 days. For polyI:C studies, mice were also treated with 0.1% NaCl or polyI:C (100 μg) intravenous (i.v.) 12-24 hours prior to APAP treatment. To study the effects of PCN on APAP treatment, mice were treated with PCN (75 mg/kg) or control (1% DMSO, corn oil) by intraperitoneal (i.p.) 12-24 hours prior to APAP treatment. To study the effects of ethanol (EtOH) on APAP treatment, mice were given 20% EtOH in water ad libidum for 5 days prior to APAP therapy. PolyI:C treatment for these experiments occurred at Day 3 and Day 5. Serum alanine aminotransferase (ALT) levels were determined using manufacturer's protocol (TECO Diagnostics). For H&E staining, liver samples were fixed in formalin for 48 hours. H&E stainings were done by UCLA Tissue Procurement Core Laboratory (TPCL).

Data set [13] is described as follows: H&E liver histology in APAP hepatotoxicity. Particulars: pretreatment with PCN or ethanol, lower levels of APAP (175 mg/kg); FIG. 3B.
The conditions of data set [14]: addition of PCN.
Data set [15] has as its system RXRα. In kind it is cell-based, Murine.

SMILES strings stand for the structures. “Also recorded” adds a separate entry of the source. Where a SMILES comes first, the peptide text is derived from it. The star is where a group is joined. Cbz = O=C(OCc1ccccc1)*

With `CC1=C(/C=C/C(C)=C\C=C\C(C)=C\C(=O)O)C(C)(C)CCC1` [9cRA, 9-cis retinoic acid], in the data set on ABCA1, the “induction of ABCA1 by 9cRA” value is “prevents”. In the data set on CRBPII, the “induction of CRBPII by 9cRA” value is listed as “prevents”.

With `CC(=O)Nc1ccc(O)cc1` [APAP, Acetaminophen], the “induction of Cyp1A2 by APAP” value with Cyp1A2 is “does not”. Moreover, the “induction of Cyp3A11 by APAP” value in the data set on Cyp3A11 [1] was “does not”. For the same compound, the “single acute toxic ingestion” value in data set [2] was “approximately 7 g”.

Turning to `CC(=O)Oc1ccccc1C(=O)O` [ASA, acetylsalicylic acid], in the data set on Oatp2, the “Oatp2 mRNA in vivo” value was “not other PXR/RXR genes such as Oatp2”. Moreover, in data set [3], the blood glucose levels result is given as “significantly decreased”, the “serum ALT” value is “increased”, the serum ammonia result is given as “increased” and the total bilirubin levels result is on record as “increased”. Besides, the “UGT1A6 mRNA in vivo” value in the data set on UGT1A6 [4] was “potently increased”. Besides, the “RXRα protein in liver” value with RXRα [5] was “significant loss of RXRα protein”. Also, in the data set on UGT1A6 [6], the “UGT1A6 induction by ASA” value is “impaired”. Also, in [7], the “hepatotoxicity (liver necrosis or fatty degeneration)” value is recorded as “caused severe hepatotoxicity as evidenced by liver necrosis or fatty degeneration”; the “hepatotoxicity from polyI:C plus ASA in knockout mice” value was “did not occur in IRF3^−/− mice, but did occur in IFNAR^−/− mice”; the “hepatotoxicity, agent alone” value was “did not cause significant hepatotoxicity”. In addition, the “CYP3A11 mRNA in vivo” value in the data set on Cyp3A11 [8] is on record as “potently increased”.

`O=C(O)Cc1cccc(OCCCN(Cc2cccc(C(F)(F)F)c2Cl)CC(c2ccccc2)c2ccccc2)c1` [GW3965]: in the data set on RXRα [9], the “RXRα protein loss following polyI:C treatment” value is on record as “more obvious”.

In the case of `C[C@H](CCC(=O)O)[C@H]1CC[C@H]2[C@@H]3CC[C@@H]4C[C@H](O)CC[C@]4(C)[C@H]3CC[C@]12C` [LCA, Lithocholic acid], the “serum alanine aminotransferase (ALT) levels” value in [10] is listed as “significant elevation of serum alanine aminotransferase (ALT) levels”.

For the compound `Cc1cc2c(cc1C1(c3ccc(C(=O)O)cn3)CC1)C(C)(C)CCC2(C)C` [LG268], the “RXRα protein loss following polyI:C treatment” value with RXRα [9] is reported as “more obvious”.

As to `CC(C)C[C@@H](C=O)NC(=O)[C@H](CC(C)C)NC(=O)[C@H](CC(C)C)NC(=O)OCc1ccccc1` [MG132] (Cbz-Leu-Leu-Leu-aldehyde), the “RXRα protein loss after 9cRA and polyI:C co-stimulation” value in the data set with RXRα [9] (MG132 10 μM, BMMs, FIG. 8f) is listed as “prevented loss of RXRα protein”.

On to `CC(=O)[C@H]1[C@H](C#N)C[C@H]2[C@@H]3CC=C4C[C@@H](O)CC[C@]4(C)[C@H]3CC[C@@]21C` [PCN, Pregnenolone 16alpha-carbonitrile], for which the “hepatotoxicity as measured by serum ALT” value in data set [11] (PCN 75 mg/kg i.p. 24 h before APAP 175 mg/kg, FIG. 2B) is recorded as “caused less toxic levels of APAP to result in severe hepatotoxicity”. Besides, the “Oatp2 mRNA in vivo” value with Oatp2 is reported as “not other PXR/RXR genes such as Oatp2”. Besides, in data set [10], the “LCA-induced serum ALT with PCN co-treatment” value was “reduced”. For the same compound, in data set [12], the “sensitivity to APAP (survival)” value is listed as “increases sensitivity to lower levels of APAP”. For the same compound, in the data set with UGT1A6 [4], the “UGT1A6 mRNA in vivo” value is “potently increased”. Moreover, the “RXRα protein expression in liver” value with RXRα [5] is “further loss of RXRα protein expression; also recorded: potent loss of RXRα protein”. The “cell necrosis (H&E)” value in data set [13] was “results in severe necrosis similar to higher doses of APAP”. The “protection from VSV plus LCA-induced hepatotoxicity” value in [14] was “could not be blocked”. Further, the “CYP3A11 mRNA in vivo” value with Cyp3A11 [8] is recorded as “potently increased”.

For `CC(/C=C/C(=O)NO)=C\[C@@H](C)C(=O)c1ccc(N(C)C)cc1` [TSA, trichostatin A], the “effect on polyI:C repression of RXRα mRNA” value in the data set on RXRα [15] was “prevented polyI:C repression of RXRα, and allowed polyI:C to induce RXRα”.

On to `CCO` [ethanol, Ethanol], for which the “sensitivity to APAP (serum ALT)” value in data set [11] (20% EtOH ad libidum 5 days, APAP 175 mg/kg, FIG. 2C) is “results in similar sensitivity to APAP as PCN treatment”. The “cell necrosis (H&E)” value in data set [13] is “results in severe necrosis similar to higher doses of APAP”.
